Results published in patent US8192962B2, “Processes for detecting toxic substances” (Daikin Industries, Ltd., priority 2001, dated 2012).

Tested on: Detoxification protein genes
Assay: DNA chip mRNA expression in yeast, detoxification protein genes (Table 8)
Format: cell-based, Saccharomyces cerevisiae S288C
In short: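 Values are treated/untreated fluorescence ratios from a whole-genome yeast DNA chip hybridized over 12 hours at 65° C with Cy3- or Cy5-labelled cDNA from poly(A) mRNA. Log-phase S288C yeast in YPD at 25° C had received a single toxic chemical for two hours, dosed to slow growth without killing.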

Measured: The level of expressed mRNA in the presence of chemical substance/The level of expressed mRNA in the absence of chemical substance

O=[N+]([O-])c1cc[n+]([O-])c2ccccc12 [(5), 4-nitroquinolin-N-oxide]
1.4: yeast gene YEL065W | yeast gene YGR224W | yeast gene YJL101C | yeast gene YOR031W
1.9: yeast gene YGR209C
2.9: yeast gene YHR053C
1.5: yeast gene YCL035C | yeast gene YJR104C | yeast gene YMR038C
0.8: yeast gene YBL064C | yeast gene YBR293W | yeast gene YGR138C | yeast gene YNL241C | yeast gene YOR251C
1.7: yeast gene YBR244W | yeast gene YMR015C
0.6: yeast gene YHR008C | yeast gene YOR247W | yeast gene YPL163C
2.7: yeast gene YHR055C
0.7: yeast gene YDR453C | yeast gene YGR197C | yeast gene YIR038C
1.6: yeast gene YCR083W | yeast gene YER185W | yeast gene YML028W | yeast gene YPR200C
1.0: yeast gene YDL100C | yeast gene YDR538W | yeast gene YEL027W | yeast gene YFL050C | yeast gene YGR088W | yeast gene YHR048W | yeast gene YKL026C | yeast gene YKR066C | yeast gene YKR105C | yeast gene YLR046C | yeast gene YOR153W
1.1: yeast gene YBR145W | yeast gene YGL013C | yeast gene YGL254W | yeast gene YHL040C | yeast gene YLL057C | yeast gene YNL259C | yeast gene YOR273C
0.9: yeast gene YBR008C | yeast gene YCL069W | yeast gene YDR513W | yeast gene YLL028W | yeast gene YLL060C
2.0: yeast gene YLR043C
1.2: yeast gene YDL168W | yeast gene YDR256C | yeast gene YHL047C | yeast gene YIR002C | yeast gene YKL064W | yeast gene YKR106W | yeast gene YML116W | yeast gene YNL239W | yeast gene YOL158C
